Test results as given in ChEMBL document CHEMBL3085659, “Synthesis, antiproliferative and apoptosis-inducing activity of thiazolo[5,4-d]pyrimidines” (Eur J Med Chem, 2013).

Assays:
Format in all cases: functional
A549 = assay: Antiproliferative activity against human A549 cells assessed as growth inhibition at 10 uM after 48 hrs by SRB assay; conditions: A549, 48 h, read-out: GI
[1] = Antiproliferative activity against human MIAPaCa2 cells assessed as growth inhibition at 10 uM after 48 hrs by SRB assay; conditions: MIA PaCa-2, 48 h, read-out: GI
HL-60 = assay: Antiproliferative activity against human HL60 cells assessed as growth inhibition at 10 uM after 48 hrs by SRB assay; conditions: HL-60, 48 h, read-out: GI
[2] = Antiproliferative activity against human NCI-H322 cells assessed as growth inhibition at 10 uM after 48 hrs by SRB assay; conditions: NCI-H322, 48 h, read-out: GI
T47D = assay: Antiproliferative activity against human T47D cells assessed as growth inhibition at 10 uM after 48 hrs by SRB assay; conditions: read-out: GI
A-431 = assay: Antiproliferative activity against human A431 cells assessed as growth inhibition at 10 uM after 48 hrs by SRB assay; conditions: A-431, 48 h, read-out: GI
T98G = assay: Antiproliferative activity against human T98G cells assessed as growth inhibition at 10 uM after 48 hrs by SRB assay; conditions: read-out: GI
PC-3 = assay: Antiproliferative activity against human PC3 cells assessed as growth inhibition at 10 uM after 48 hrs by SRB assay; conditions: PC-3, 48 h, read-out: GI

Clc1ncnc2sc(Nc3ccccc3)nc12
inhibition of growth at 10 µM (A549): 3% | inhibition of growth at 10 µM [1]: 4% | inhibition of growth at 10 µM (HL-60): 21% | inhibition of growth at 10 µM [2]: 0% | inhibition of growth at 10 µM (T47D): 22% | inhibition of growth at 10 µM (A-431): 1% | inhibition of growth at 10 µM (T98G): 1% | inhibition of growth at 10 µM (PC-3): 20%

O=C(Nc1nc2c(Cl)ncnc2s1)c1ccccc1
inhibition of growth at 10 µM (A549): 29% | inhibition of growth at 10 µM [1]: 15% | inhibition of growth at 10 µM (HL-60): 21% | inhibition of growth at 10 µM [2]: 37% | inhibition of growth at 10 µM (T47D): 32% | inhibition of growth at 10 µM (A-431): 0% | inhibition of growth at 10 µM (T98G): 23% | inhibition of growth at 10 µM (PC-3): 21%

Clc1ccc(Nc2nc3c(Cl)ncnc3s2)cc1
inhibition of growth at 10 µM (A549): 46% | inhibition of growth at 10 µM [1]: 10% | inhibition of growth at 10 µM (HL-60): 18% | inhibition of growth at 10 µM [2]: 47% | inhibition of growth at 10 µM (T47D): 9% | inhibition of growth at 10 µM (A-431): 0% | inhibition of growth at 10 µM (T98G): 0% | inhibition of growth at 10 µM (PC-3): 18%

Clc1ccc(Nc2nc3c(N4CCOCC4)ncnc3s2)cc1
inhibition of growth at 10 µM (A549): 24% | inhibition of growth at 10 µM [1]: 21% | inhibition of growth at 10 µM (HL-60): 33% | inhibition of growth at 10 µM [2]: 42% | inhibition of growth at 10 µM (T47D): 40% | inhibition of growth at 10 µM (A-431): 0% | inhibition of growth at 10 µM (T98G): 22% | inhibition of growth at 10 µM (PC-3): 39%

CN(C)c1ncnc2sc(Nc3ccc(Cl)cc3)nc12
inhibition of growth at 10 µM (A549): 23% | inhibition of growth at 10 µM [1]: 28% | inhibition of growth at 10 µM (HL-60): 39% | inhibition of growth at 10 µM [2]: 6% | inhibition of growth at 10 µM (T47D): 21% | inhibition of growth at 10 µM (A-431): 0% | inhibition of growth at 10 µM (T98G): 23% | inhibition of growth at 10 µM (PC-3): 28%

CCN1CCN(c2ncnc3sc(Nc4ccccc4)nc23)CC1
inhibition of growth at 10 µM (A549): 25% | inhibition of growth at 10 µM [1]: 9% | inhibition of growth at 10 µM (HL-60): 24% | inhibition of growth at 10 µM [2]: 27% | inhibition of growth at 10 µM (T47D): 29% | inhibition of growth at 10 µM (A-431): 0% | inhibition of growth at 10 µM (T98G): 19% | inhibition of growth at 10 µM (PC-3): 19%

CN1CCN(c2ncnc3sc(Nc4ccccc4)nc23)CC1
inhibition of growth at 10 µM (A549): 19% | inhibition of growth at 10 µM [1]: 10% | inhibition of growth at 10 µM (HL-60): 12% | inhibition of growth at 10 µM [2]: 39% | inhibition of growth at 10 µM (T47D): 13% | inhibition of growth at 10 µM (A-431): 19% | inhibition of growth at 10 µM (T98G): 36% | inhibition of growth at 10 µM (PC-3): 29%

Clc1ccc(Nc2nc3c(N4CCCC4)ncnc3s2)cc1
inhibition of growth at 10 µM (A549): 26% | inhibition of growth at 10 µM [1]: 37% | inhibition of growth at 10 µM (HL-60): 41% | inhibition of growth at 10 µM [2]: 27% | inhibition of growth at 10 µM (T47D): 38% | inhibition of growth at 10 µM (A-431): 17% | inhibition of growth at 10 µM (T98G): 6% | inhibition of growth at 10 µM (PC-3): 31%

c1ccc(Nc2nc3c(N4CCNCC4)ncnc3s2)cc1
inhibition of growth at 10 µM (A549): 19% | inhibition of growth at 10 µM [1]: 30% | inhibition of growth at 10 µM (HL-60): 39% | inhibition of growth at 10 µM [2]: 35% | inhibition of growth at 10 µM (T47D): 21% | inhibition of growth at 10 µM (A-431): 18% | inhibition of growth at 10 µM (T98G): 12% | inhibition of growth at 10 µM (PC-3): 35%

c1ccc(Nc2nc3c(N4CCCCC4)ncnc3s2)cc1
inhibition of growth at 10 µM (A549): 54% | inhibition of growth at 10 µM [1]: 17% | inhibition of growth at 10 µM (HL-60): 22% | inhibition of growth at 10 µM [2]: 41% | inhibition of growth at 10 µM (T47D): 31% | inhibition of growth at 10 µM (A-431): 22% | inhibition of growth at 10 µM (T98G): 42% | inhibition of growth at 10 µM (PC-3): 2%

CN(C)c1ncnc2sc(Nc3ccccc3)nc12
inhibition of growth at 10 µM (A549): 28% | inhibition of growth at 10 µM [1]: 9% | inhibition of growth at 10 µM (HL-60): 28% | inhibition of growth at 10 µM [2]: 18% | inhibition of growth at 10 µM (T47D): 31% | inhibition of growth at 10 µM (A-431): 10% | inhibition of growth at 10 µM (T98G): 45% | inhibition of growth at 10 µM (PC-3): 36%

CCN(CC)c1ncnc2sc(Nc3ccccc3)nc12
inhibition of growth at 10 µM (A549): 48% | inhibition of growth at 10 µM [1]: 9% | inhibition of growth at 10 µM (HL-60): 31% | inhibition of growth at 10 µM [2]: 39% | inhibition of growth at 10 µM (T47D): 27% | inhibition of growth at 10 µM (A-431): 12% | inhibition of growth at 10 µM (T98G): 49% | inhibition of growth at 10 µM (PC-3): 19%

Clc1ccc(Nc2nc3c(N4CCCCC4)ncnc3s2)cc1
inhibition of growth at 10 µM (A549): 57% | inhibition of growth at 10 µM [1]: 1% | inhibition of growth at 10 µM (HL-60): 21% | inhibition of growth at 10 µM [2]: 63% | inhibition of growth at 10 µM (T47D): 8% | inhibition of growth at 10 µM (A-431): 22% | inhibition of growth at 10 µM (T98G): 45% | inhibition of growth at 10 µM (PC-3): 2%

COc1ccc(Nc2nc3c(Cl)ncnc3s2)cc1
inhibition of growth at 10 µM (A549): 0% | inhibition of growth at 10 µM [1]: 0% | inhibition of growth at 10 µM (HL-60): 31% | inhibition of growth at 10 µM [2]: 25% | inhibition of growth at 10 µM (T47D): 19% | inhibition of growth at 10 µM (A-431): 9% | inhibition of growth at 10 µM (T98G): 4% | inhibition of growth at 10 µM (PC-3): 26%

c1ccc(Nc2nc3c(N4CCC(N5CCCCC5)CC4)ncnc3s2)cc1
inhibition of growth at 10 µM (A549): 19% | inhibition of growth at 10 µM [1]: 23% | inhibition of growth at 10 µM (HL-60): 39% | inhibition of growth at 10 µM [2]: 30% | inhibition of growth at 10 µM (T47D): 21% | inhibition of growth at 10 µM (A-431): 10% | inhibition of growth at 10 µM (T98G): 13% | inhibition of growth at 10 µM (PC-3): 34%

CN1CCN(c2ncnc3sc(Nc4ccc(Cl)cc4)nc23)CC1
inhibition of growth at 10 µM (A549): 18% | inhibition of growth at 10 µM [1]: 5% | inhibition of growth at 10 µM (HL-60): 20% | inhibition of growth at 10 µM [2]: 10% | inhibition of growth at 10 µM (T47D): 21% | inhibition of growth at 10 µM (A-431): 21% | inhibition of growth at 10 µM (T98G): 20% | inhibition of growth at 10 µM (PC-3): 18%
